According to US9095587B2, “Methods and compositions for improved nerve conduction velocity” (Spinifex Pharmaceuticals Pty Ltd, priority 2010, dated 2015):
Values joined by “and” are separate entries in the source; they are usually repeats but may differ in a detail not shown here. Equal values may be shown once. Where a name gives a salt, the structure may show the parent alone. Blank lines part the entries; values can stand above or below the molecule they belong to.

Assays:
[1] = target: AT2 (h) human recombinant (Hela cells) (Homo sapiens, UniProt P50052); conditions: competition curve, Hill equation curve fitting
Method: (§3) The specific ligand binding to the receptors is defined as the difference between the total binding and the nonspecific binding determined in the presence of an excess of unlabelled ligand. […] The IC50 values (concentration causing a half-maximal inhibition of control specific binding) and Hill coefficients (nH) were determined by non-linear regression analysis of the competition curves using Hill equation curve fitting. The inhibition constants (Ki) were calculated from the Cheng Prusoff equation (Ki=IC50/(1+(L/KD)), where L=concentration of radioligand in the assay, and KD=affinity of the radioligand for the receptor).

diabetic rats [2] = test: Sciatic motor nerve conduction velocity in STZ-diabetic rats; type: in vivo, rat; conditions: for Motor NCV, Mean: group mean of 10 diabetic rats; for Motor NCV, Mean / Motor NCV: last 2 weeks of 8 weeks diabetes; for Motor NCV: individual diabetic rats
Method: (§1) Methods: Diabetes was induced in mature (19 week old) male Sprague-Dawley by a single STZ injection (40-45 mg/kg i.p.). The diabetic state was monitored weekly using commercially available test strips for blood (tail vein) and urine glucose levels. Body weight was also monitored daily. The criteria for the diabetic state were: blood glucose>19.9 mM, glycosuria, and no evidence of body weight gain.
(§2) In final experiments, rats were anaesthetized with thiobutabarbital (50-100 mg kg-1 i.p.) The trachea was cannulated for artificial respiration. The level of anaesthesia was monitored by observing any reaction of blood pressure to manipulation, supplementary thiobutabarbital anaesthetic being given as necessary. As described in detail by Cameron et al., (Q. J. Expt Physiol, 74; 917-926, 1989 and Diabetes, 40:532-539, 1991), the sciatic nerve was exposed between the sciatic notch and knee. Bipolar stimulating electrodes were placed close to the nerve at the notch and knee. A concentric bipolar electrode was inserted into tibialis anterior muscle to monitor evoked electromyographic (EMG) activity. Potentials evoked from each stimulating site were averaged 8 times. Motor nerve conduction velocity (NCV) was calculated by dividing the distance between stimulating electrodes by the average latency difference between the onsets of EMG potentials evoked from the 2 sites. Nerve temperature was monitored using a thermocouple probe, and maintained in the range 36-38° C. by radiant heat. Body temperature was also maintained around 37° C. using a heated blanket.
as §1, with “also be” for “also”
as §2, with “necessary. The” for “necessary. As described in detail by Cameron et al., (Q. J. Expt Physiol, 74; 917-926, 1989 and Diabetes, 40:532-539, 1991), the”, “averaged […]” for “averaged 8”, “Motor NCV” for “Motor nerve conduction velocity (NCV)”, “blanket. Sensory NCV was measured for sensory saphenous nerve between groin and mid-calf in a similar fashion, except that direct nerve evoked potentials were recorded at the ankle using a unipolar platinum hook electrode. Reference values for comparison of the NCV data were obtained from nondiabetic control and 8 week diabetic control rats.” for “blanket.”
as §1, with “Diabetes” for “Methods: Diabetes”
In final experiments, rats were anaesthetized with thiobutabarbital (50-100 mg kg-1 i.p.) The trachea was cannulated for artificial respiration. […]

[3] = target: T1, AT1 (h) human recombinant (CHO cells) (Homo sapiens, UniProt P30556); test: AT1 (h) receptor binding assay; conditions: [125I][Sar1, Ile8]-AT II 0.05 nM, 60 min./37° C.; highest tested concentration
T1 construct: expressed in transfected cells; host or cells: CHO cells
T1 sequence (P30556 1-359): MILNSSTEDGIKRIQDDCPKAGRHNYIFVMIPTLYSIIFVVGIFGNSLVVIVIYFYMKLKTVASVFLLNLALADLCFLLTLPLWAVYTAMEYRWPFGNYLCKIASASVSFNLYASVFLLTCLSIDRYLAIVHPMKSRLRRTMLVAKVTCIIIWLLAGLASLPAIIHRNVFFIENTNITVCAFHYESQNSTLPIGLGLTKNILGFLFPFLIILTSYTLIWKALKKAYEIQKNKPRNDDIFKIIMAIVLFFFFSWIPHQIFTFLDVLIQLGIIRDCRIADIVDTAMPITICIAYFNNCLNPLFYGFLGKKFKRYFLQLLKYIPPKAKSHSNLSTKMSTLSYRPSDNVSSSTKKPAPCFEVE
Method: as §3

diabetic rats [4] = test: Tactile allodynia, electronic von Frey hair apparatus, diabetic rats; type: in vivo, rat
Method: as §1, with “Diabetes” for “Methods: Diabetes”
Tactile allodynia thresholds for the foot were measured by an electronic von Frey hair apparatus. Latencies for foot withdrawal reflexes to noxious thermal stimulation were estimated by the Hargreaves plantar test (Hargreaves K, Dubner R, Brown F, Flores C, Joris J. A new and sensitive method for measuring thermal nociception in cutaneous hypeialgesia. Pain 1988; 32: 77-88). All tests were carried out using commercially available equipment (Ugo-Basile, Comerio, Italy). […]
Tactile allodynia was estimated on two separate occasions; once on a day before treatment was initiated, and then on the day immediately following the last day of the treatment period. […] Thus, stimulus intensity tracked the threshold, and a run of 6 near-threshold responses was used to estimate the 50% threshold value using lookup tables (Chaplan S R, Bach F W, Pogrel J W, Chung J M, Yaksh T L. Quantitative assessment of tactile allodynia in the rat paw. J Neurosci Meth 1994; 53: 55-63). […]

diabetic rats [5] = test: Saphenous sensory nerve conduction velocity in STZ-diabetic rats; type: in vivo, rat; conditions: for Sensory NCV, Mean: group mean of 10 diabetic rats; for Sensory NCV, Mean / Sensory NCV: last 2 weeks of 8 weeks diabetes; for Sensory NCV: individual diabetic rats
Method: as §1
Sensory NCV was measured for sensory saphenous nerve between groin and mid-calf in a similar fashion, except that direct nerve evoked potentials were recorded at the ankle using a unipolar platinum hook electrode.
as §1, with “also be” for “also”
as §2, with “necessary. The” for “necessary. As described in detail by Cameron et al., (Q. J. Expt Physiol, 74; 917-926, 1989 and Diabetes, 40:532-539, 1991), the”, “averaged […]” for “averaged 8”, “Motor NCV” for “Motor nerve conduction velocity (NCV)”, “blanket. Sensory NCV was measured for sensory saphenous nerve between groin and mid-calf in a similar fashion, except that direct nerve evoked potentials were recorded at the ankle using a unipolar platinum hook electrode. Reference values for comparison of the NCV data were obtained from nondiabetic control and 8 week diabetic control rats.” for “blanket.”
as §1, with “Diabetes” for “Methods: Diabetes”
as §2, with “The” for “As described in detail by Cameron et al., (Q. J. Expt Physiol, 74; 917-926, 1989 and Diabetes, 40:532-539, 1991), the”, “NCV” for “nerve conduction velocity (NCV)”, “blanket. Sensory NCV was measured for sensory saphenous nerve between groin and mid-calf in a similar fashion, except that direct nerve evoked potentials were recorded at the ankle using a unipolar platinum hook electrode. […]” for “blanket.”

diabetic rats [6] = test: Thermal hyperalgesia, Hargreaves plantar test, diabetic rats; type: in vivo, rat
Method: as §1, with “Diabetes” for “Methods: Diabetes”
Tactile allodynia thresholds for the foot were measured by an electronic von Frey hair apparatus. Latencies for foot withdrawal reflexes to noxious thermal stimulation were estimated by the Hargreaves plantar test (Hargreaves K, Dubner R, Brown F, Flores C, Joris J. A new and sensitive method for measuring thermal nociception in cutaneous hypeialgesia. Pain 1988; 32: 77-88). All tests were carried out using commercially available equipment (Ugo-Basile, Comerio, Italy). Measurements were made in a constant temperature room at the same time each day, and rats were given a 3-day period for familiarization with handling, the environment, equipment, and experimental procedure.
In a similar way to the assessment of tactile allodynia, thermal sensitivity was also measured on 2 separate occasions, before and after treatment. […] After 30 min acclimatization, a constant power infrared stimulus was focused onto the sole of the foot and the latency for reflex foot withdrawal recorded via a photoelectric monitor. […]

[7] = Body weight, blood glucose and general condition of treated diabetic rats; type: in vivo, rat; conditions: for End weight, Mean: group mean of 10 diabetic rats; for End weight, Mean / End weight: last 2 weeks of 8 weeks diabetes; for End weight: individual diabetic rats
Method: as §1
as §1, with “also be” for “also”

[8] = 1.048 mg/kg daily by gavage for 2 weeks
[9] = 1.048 mg/kg by oral gavage, 1 day, before vs after drug
[10] = 1.048 mg/kg daily by oral gavage
[11] = 1.048 mg/kg daily by oral gavage, 28 days
[12] = 0.01048 mg/kg daily by gavage, 0.01048 mg/kg
[13] = 0.0349 mg/kg daily by gavage, 0.0349 mg/kg
[14] = 0.1048 mg/kg daily by gavage, 0.1048 mg/kg
[15] = 1.048 mg/kg daily by gavage, 1.048 mg/kg

Chain of AT2 (h) human recombinant (Hela cells) (P50052 whole entry): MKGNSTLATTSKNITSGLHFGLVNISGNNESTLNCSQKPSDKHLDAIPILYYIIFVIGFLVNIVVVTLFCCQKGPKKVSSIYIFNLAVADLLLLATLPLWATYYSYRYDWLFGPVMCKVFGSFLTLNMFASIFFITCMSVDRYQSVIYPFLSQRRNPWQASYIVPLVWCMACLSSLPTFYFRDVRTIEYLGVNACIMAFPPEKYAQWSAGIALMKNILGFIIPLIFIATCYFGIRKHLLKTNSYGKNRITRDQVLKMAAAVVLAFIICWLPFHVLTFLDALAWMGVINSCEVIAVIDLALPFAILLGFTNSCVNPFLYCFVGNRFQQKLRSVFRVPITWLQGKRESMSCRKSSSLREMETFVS

nH (Hill coefficient) [1]: 1.3
SMILES: COc1ccc2c(c1OCc1ccccc1)C[C@@H](C(=O)O)N(C(=O)C(c1ccccc1)c1ccccc1)C2 [Compound 1, S-2-(diphenylacetyl)-5-benzyloxy-6-methoxy-1,2,3,4-tetrahydroisoquinoline-3-carboxylic acid]
sciatic motor NCV compared with nondiabetic control group (one way ANOVA, Bonferroni test) (diabetic rats [2]; [8]): not significantly different
reversal of the diabetic deficit, sciatic motor NCV (diabetic rats [2]; 1.048 mg/kg daily by gavage for 2 weeks, vs nondiabetic and diabetic reference groups): 92.6±5.4%
Flags (IC50 determination) [3]: N.C. (Not calculable. IC50 value is not calculable because of less than 25% inhibition at the highest tested concentration.)

SMILES: COc1ccc2c(c1OCc1ccccc1)C[C@@H](C(=O)O)N(C(=O)C(c1ccccc1)c1ccccc1)C2 [Compound 1 sodium salt, S-2-(diphenylacetyl)-5-benzyloxy-6-methoxy-1,2,3,4-tetrahydroisoquinoline-3-carboxylic acid]
effect on tactile allodynia of only 1 day of treatment (paired Student's t) (diabetic rats [4]; [9]): significant, albeit partial
treatment duration to full correction of tactile allodynia (diabetic rats [4]; [10]): 3 days
diabetic deficit corrected, saphenous sensory NCV (diabetic rats [5]; 1.048 mg/kg daily by gavage for 2 weeks, p<0.001, vs reference groups): 99.1±5.0%
treatment duration after which sensory NCV was statistically within the nondiabetic range (diabetic rats [5]; [10]): 3 days
sensory NCV, 28-day treatment group versus 14-day data (diabetic rats [5]; [11]): entirely comparable with the previously obtained 14-day data
ED50 (diabetic rats [5]; Rattus norvegicus, 336 h, oral, daily for 2 weeks, best fit sigmoid curve, read-out: ED50, correction of saphenous sensory NCV deficit): 0.02 mg/kg
Sensory NCV, Mean (diabetic rats [5]; 0.01048 mg/kg daily by gavage): 53.93 m/s
Sensory NCV, Mean (diabetic rats [5]; 0.0349 mg/kg daily by gavage): 57.25 m/s
Sensory NCV, Mean (diabetic rats [5]; 0.1048 mg/kg daily by gavage): 60.73 m/s
Sensory NCV, Mean (diabetic rats [5]; 1.048 mg/kg daily by gavage): 61.10 m/s
Sensory NCV (diabetic rats [5]; [12]): 55.47 m/s and 56.07 m/s and 51.59 m/s and 54.39 m/s and 55.30 m/s and 51.82 m/s and 51.85 m/s and 55.81 m/s and 53.85 m/s and 53.19 m/s
Sensory NCV (diabetic rats [5]; [13]): 57.43 m/s and 57.94 m/s and 55.60 m/s and 59.95 m/s and 56.00 m/s and 57.50 m/s and 55.93 m/s and 57.73 m/s and 57.72 m/s and 56.72 m/s
Sensory NCV (diabetic rats [5]; [14]): 61.11 m/s and 62.96 m/s and 61.22 m/s and 56.67 m/s and 63.16 m/s and 62.50 m/s (2×) and 63.04 m/s and 58.33 m/s and 55.83 m/s
Sensory NCV (diabetic rats [5]; [15]): 62.50 m/s (4×) and 60.63 m/s and 60.41 m/s and 60.71 m/s and 57.57 m/s and 60.98 m/s and 60.74 m/s
effect on thermal hyperalgesia of only 1 day of treatment (paired Student's t) (diabetic rats [6]; [9]): significant, albeit partial
treatment duration to full correction of thermal hyperalgesia (diabetic rats [6]; [10]): 3 days
condition of animals at the end of the experimental period [7, 8]: in good condition and behaviourally alert
condition of animals at the end of the experimental period ([7]; 0.1048, 0.0349 or 0.01048 mg/kg daily by gavage for 2 weeks): in good condition and behaviourally alert
End weight, Mean ([7]; 0.01048 mg/kg daily by gavage): 372 g
End weight, Mean ([7]; 0.0349 mg/kg daily by gavage): 357 g
End weight, Mean ([7]; 0.1048 mg/kg daily by gavage): 369 g
End weight, Mean ([7]; 1.048 mg/kg daily by gavage): 390 g
End weight [7, 12]: 374 g and 436 g and 346 g and 438 g and 349 g and 329 g and 364 g and 385 g and 386 g and 312 g
End weight [7, 13]: 369 g and 427 g and 400 g and 396 g and 332 g and 307 g and 277 g and 327 g and 368 g (2×)
End weight [7, 14]: 398 g and 363 g and 298 g and 315 g and 357 g and 346 g and 392 g and 405 g and 374 g and 440 g
End weight [7, 15]: 429 g and 380 g and 389 g and 393 g and 390 g and 353 g and 366 g and 418 g and 360 g and 425 g
treatment duration after which motor NCV was statistically within the nondiabetic range (diabetic rats [2]; [10]): 7 days
motor NCV, 28-day treatment group versus 14-day data (diabetic rats [2]; [11]): entirely comparable with the previously obtained 14-day data
ED50 (diabetic rats [2]; Rattus norvegicus, 336 h, oral, daily for 2 weeks, best fit sigmoid curve, read-out: ED50, correction of sciatic motor NCV deficit): 0.044 mg/kg
Motor NCV, Mean (diabetic rats [2]; 0.01048 mg/kg daily by gavage): 53.25 m/s
Motor NCV, Mean (diabetic rats [2]; 0.0349 mg/kg daily by gavage): 56.68 m/s
Motor NCV, Mean (diabetic rats [2]; 0.1048 mg/kg daily by gavage): 60.51 m/s
Motor NCV, Mean (diabetic rats [2]; 1.048 mg/kg daily by gavage): 63.72 m/s
Motor NCV (diabetic rats [2]; [12]): 54.92 m/s and 55.17 m/s and 54.10 m/s and 50.78 m/s and 54.03 m/s and 51.60 m/s and 51.96 m/s and 56.90 m/s and 50.70 m/s and 52.38 m/s
Motor NCV (diabetic rats [2]; [13]): 56.15 m/s and 57.38 m/s and 56.90 m/s and 57.89 m/s and 59.32 m/s and 56.67 m/s and 53.68 m/s and 58.18 m/s and 54.55 m/s and 56.06 m/s
Motor NCV (diabetic rats [2]; [14]): 59.13 m/s and 61.48 m/s and 60.00 m/s (2×) and 58.62 m/s and 63.63 m/s and 64.15 m/s and 59.02 m/s and 60.78 m/s and 58.33 m/s
Motor NCV (diabetic rats [2]; [15]): 62.87 m/s and 62.30 m/s and 62.84 m/s and 62.50 m/s and 63.90 m/s and 62.69 m/s and 64.95 m/s and 61.75 m/s and 69.57 m/s and 63.81 m/s
